Results published in patent publication US8741886B2, “Baclofen and acamprosate based therapy of neurological disorders” (Pharnext, priority 2011, dated 2014).

Experiments:
neuronal cortical cells = assay: Glutamate toxicity assay on primary cortical neurons (neurite network, neurofilament immunostaining); assay type: cell-based, rat; conditions: Baclofen 400 nM, Acamprosate 1.6 nM; glutamate 40 μM, 20 min
Description: The efficacy of drug combinations of the invention is assessed on primary cortical neuron cells. The protocol which is used in these assays is the same as described in section A.I.2 above.
After 12 days of neuron culture, drugs of the candidate combinations are solved in culture medium (+0.1% DMSO). Candidate combinations are then pre-incubated with neurons for 1 hour before the Glutamate injury. One hour after incubation with, Glutamate is added for 20 min, to a final concentration of 40 μM, in presence of candidate combinations, in order to avoid further drug dilutions. At the end of the incubation, medium is changed with medium with candidate combination but without glutamate. The culture is fixed 24 hours after glutamate injury. MK801 (Dizocilpinehydrogen maleate, 77086-22-7-20 μM) is used as a positive control.
After permeabilization with saponin (Sigma), cells are blocked for 2 h with PBS containing 10% goat serum, then the cells are incubated with mouse monoclonal primary antibody against Neurofilament antibody (NF, Sigma).
Nuclei of cells are labeled by a fluorescent marker (Hoechst solution, SIGMA), and neurite network quantified. Six wells per condition are used to assess neuronal survival in 3 different cultures.

[1] = test system: mice injected i.c.v. with Aβ25-35 peptide; assay: Passive avoidance test after i.c.v. Aβ25-35; assay type: in vivo; conditions: Acamprosate 0.2 mg/kg; Baclofen 3 mg/kg
Description: Male Swiss mice are used throughout the study. Animals are housed in plastic cages, with free access to laboratory chow and water, except during behavioural experiments, and kept in a regulated environment, under a 12 h light/dark cycle (light on at 8:00 a.m.). Experiments are carried out in a soundproof and air-regulated experimental room, to which mice have been habituated at least 30 min before each experiment.
Drug(s) is/are daily administered by gavage (per os). The β25-35 peptide and scrambled β 25-35 peptide (control) have been dissolved in sterile bidistilled water, and stored at −20° C. until use. The β-amyloid peptides are then administered intracerebroventricularly (i.c.v.). […]
On day 7 and 8, the contextual long-term memory of the animals is assessed using the […] passive avoidance procedure.
The apparatus is a two-compartment (15×20×15 cm high) box with one illuminated with white polyvinylchloride walls and the other darkened with black polyvinylchloride walls and a grid floor. […] The step-through latency, that is, the latency spent to enter the darkened compartment, and the number of vocalizations is recorded. […] After 5 s the doors is raised, the step-through latency and the escape latency, i.e. the time spent to return into the white compartment, are recorded up to 300 s.

| Structure (SMILES) | effect on glutamate intoxication (in words) (neuronal cortical cells) | effect on step-through latency, drugs alone compared with the combination (in words) [1] |
| --- | --- | --- |
| NCC(CC(=O)O)c1ccc(Cl)cc1 (stereo not shown) [Baclofen] | no significant effect | lower effect |
| CC(=O)NCCCS(=O)(=O)O [Acamprosate] | no significant effect | lower effect |
